# In patent publication EP0462621A2, “Use of particular compounds for manufacture of pharmaceutical formulations for treatment against various parasites, mycoplasmas, other indications and other infections” (Prendergast, Patrick Thomas, priority 1990, dated 1991):
# Tests used:
# HIV-1 = test: In vitro HIV-1 infection of H9 cells, HIV-1 P24 antigen capture test; type: cell-based; details: doses of 3.75 µM or higher, Figure 13
# Method: In vitro infection of H9 cells was carried out as described previously. Briefly, 5x10^6 H9 cells were treated with DEAE-dextran (25 µg/mt) for 20 min. Cells were then infected with 1 ml of cell free HIV-1 (1 X1 05 RT unit) for 1 hr at 37° C. Cells were then washed and incubated for 12 days in the absence or presence of various concentrations of IPA. Every 3-4 days, the medium was replaced with fresh medium containing appropriate concentrations of drug. At various days following infection, the presence of HIV-1 in the supernatant was monitored by measuring HIV-1 P24 using the antigen capture test (DuPont@, Wilmington, DE).
# An investigation of the effect of IPA on in-vitro HIV-1 infection of H9 cells, a T cell line, was performed. The drug was added following 1 hr adsorption of the virus, and was maintained in the culture medium throughout the incubation period.
# [1] = test system: herpes simplex type 1 (HSV-1); test: M413 cells, HSV-1; type: cell-based; details: M413 cell line of human fibroblasts
# Method: A procedure similar to that described for Experiment la(g) was followed except herpes simplex virus- type I (HSV-I) was used.
# The experiments were performed in duplicate M413 cells which were set up in Titer-Tek slides (4 well, glass) and those that were confluent within one day were used in experiments. Within 24-48 hours, cell densities were checked to ensure sufficiency to proceed with infection. Stock HSV-1 was serially diluted in 10-fold steps (1, 10^-1, 10-^2, 10-^3, 10-^4) to provide 2 ml of each dilution: 0.2/1.8 ml diluent to finally yield overall dilutions of approximately 10^-1, 10^-2, 10-^3, 10^-4, 10-^5. Virus absorption was allowed for 90 minutes at 37 °C, after which time the inoculum was removed and replaced with solutions containing IPA at the concentrations as indicated in Table la(j). The slide was incubated for 3 days and stained with the following antisera: monoclonal antibody (MAB) to HSV-1 virus capsid antigen (VCA) at 1:20; control mores IgG at 1:20.
# T. cruzi = T. cruzi intracellular amastigote (AM) in-vitro screen; type: cell-based
# Method: Dividing populations can be cultivated in muscle cells, fibroblasts and macrophages, following infection with trypomastigotes. After the initial infection, there is normally a period of 4-5 days during which the amastigotes divide before transforming, via the epimastigote stage, back to trypomastigotes which escape from the cell. Drug activity is measured during this 4-5 day period. A dividing host cell population, low infection rate, and the presence of trypomastigotes in the overlay can complicate the interpretation of results.
# Intracellular amastigote models can use a range of muscle (skeletal and cardiac) and fibroblast (e.g. HeLa, HePa) cell lines, macrophages, and chick embryo cells. […] To overcome the problems of overgrowth of the monolayer and a low percentage of infected cells, often associated with the use of cell lines, irradiated rat L6 myoblasts are used.
# HIV-1 and CAEV = test: Inhibition of virus replication, summary over viruses and cell lines of Figure 15; type: cell-based; details: depending upon the virus and cell line
# Method: Selected results presented in Tables la(a), la(b) and la(c) are plotted in Figure 15.
# It is apparent from Figure 15 that IPA appears to inhibit the replication of HIV-1 and CAEV at concentrations ranging from 3 to 30 µM and above. Without appropriate toxicity data it is not possible to calculate the therapeutic index at the various drug concentrations. Nevertheless, the IC50 can be seen to vary between approximately 2-6 u.M, depending upon the virus and cell line, and the ICso varies between 3-30 µM in these experiments.
# [2] = Case study two: HIV positive patient, IPA orally; type: in vivo, human
# Method: In another case study, […], a homosexual person, was diagnosed HIV positive in June, 1986. […] was also diagnosed as having hepatitis at that time. Beginning on May 7, 1990, IPA was administered orally to […] On May 7, 1990, […] was experiencing (1) weight loss, (2) night sweats, (3) thrush, (4) fungal infections, (5) pneumonia, (6) diarrhea, and (7) hairy leukoplakia.
# Prior to treatment with IPA, V.T. had experienced diarrhea and night sweats for the previous six weeks. […] […] […] As of July 26, 1990, V.T.'s helper/suppressor ration was 0.93.
# 81-66-45 Cells = test: Cytotoxicity on uninfected 81-66-45 cells, 10 days continuous exposure; type: cell-based; details: read-out: ID50 - The concentration of IPA which kills 50% of the cells
# Method: The "Percent Dead Cells" are taken from Tables la(d) (iii) and la(d) (v) using the 10-day value, and the therapeutic index have been calculated for each drug concentration. The results of IPA are also graphed in Figures 16 and 17. Cytotoxicity (the dashed line) is calculated as the percent live cells.
# The availability of toxicity data collected in the same time frame as required for determination of antiviral effectiveness allowed determination of values for two different cell lines. Figures 16 and 17 illustrate the curves obtained by plotting the cytotoxicity of IPA (as a percent of the control cell viability) versus the percent of inhibition of HIV-1 replication (as a percent of the control titer) when H9 and 81-66-45 cells were tested. The cytotoxicity data obtained with 10 days continuous exposure, using uninfected cells, were used since 10 days was the length of time required to carry out the infectivity test. As is apparent from Tables la-(d) (ii) - la(d) (v), toxicity is much lower when the drug is added to cells for one day and then removed, or when cells are exposed for only 1 or 4 days. It is difficult to mimic in-vivo exposure times, particularly if metabolites are more toxic than the parent compound and are readily cleared in-vivo but not in-vitro.
# [3] = test system: Human peripheral blood mononuclear cells; test: Experiment 1a(d): human cell viability, trypan blue counts; type: cell-based; details: 18 hours; for Cells/ml (x10^5) / Viability (%): 37° C
# Method: Human peripheral blood mononuclear cells were incubated for 18 hours in the presence of various concentrations of IPA and azidothymidine (AZT) at 37° C after which time cell viability was determined by visual counts of cells in the presence of trypan blue. Two controls were run, one with each series of experiments.
smiles,measurement,setting,value
"CC(C)=CCNc1ncnc2c1ncn2[C@@H]1O[C@H](CO)[C@@H](O)[C@H]1O [IPA, N^6-(Δ^2-isopentenyl) adenosine]",inhibition of HIV-1 production,HIV-1,more than five log inhibition
same,in-vitro levels of herpes simplex type 1 (HSV-1),[1],reduces
same,"activity, intracellular AM",T. cruzi; T. cruzi strain Sonya,"++(Y,Sonya)"
same,"activity, intracellular AM",T. cruzi; T. cruzi strain Y,"++(Y,Sonya)"
same,ICso,HIV-1 and CAEV,3 to 30 µM
same,IC50,HIV-1 and CAEV; approximately,2 to 6 µM
same,toxic side effects,[2],no permanent toxic side effects
same,weight stabilized at,[2],133 lbs
same,hairy leukoplakia,[2]; IPA orally,complete remission
same,helper/suppressor ratio,"[2]; July 26, 1990",0.93
same,weight,"[2]; June 11, 1990, 119 lbs on May 7, 1990 (start of IPA)",132 lbs
same,helper/suppressor ratio,"[2]; June 21, 1990, 0.53 on May 7, 1990",0.65
same,T4 count,"[2]; June 21, 1990, 207 on May 7, 1990",330
same,time in which diarrhea and night sweats cleared,"[2]; after the beginning of the treatment, symptoms for the previous six weeks",≤ 48 h
same,weight gain,[2]; over the first month of treatment,about 0.5 lbs per day
same,CC50,81-66-45 Cells,40 µM
same,Cells/ml (x10^5),[3]; 0.1 µM,2.4 Cells/ml (x10^5)
same,Viability (%),[3]; 0.1 µM,86%
same,Cells/ml (x10^5),[3]; 0.3 µM,1.8 Cells/ml (x10^5)
same,Viability (%),[3]; 0.3 µM,82%
same,Cells/ml (x10^5),[3]; 1 µM,2.8 Cells/ml (x10^5)
same,Viability (%),[3]; 1 µM,100%
same,Cells/ml (x10^5),[3]; 3 µM,2.6 Cells/ml (x10^5)
same,Viability (%),[3]; 3 µM,87%
same,Cells/ml (x10^5),[3]; 10 µM,3.0 Cells/ml (x10^5)
same,Viability (%),[3]; 10 µM,94%
same,Cells/ml (x10^5),[3]; 30 µM,3.8 Cells/ml (x10^5)
same,Viability (%),[3]; 30 µM,95%
same,Cells/ml (x10^5),[3]; 100 µM,3.8 Cells/ml (x10^5)
same,Viability (%),[3]; 100 µM,90%
same,Cells/ml (x10^5),[3]; 300 µM,2.2 Cells/ml (x10^5)
same,Viability (%),[3]; 300 µM,79%
same,Cells/ml (x10^5),[3]; 1000 µM,2.8 Cells/ml (x10^5)
same,Viability (%),[3]; 1000 µM,82%
same,Cells/ml (x10^5),[3]; 3000 µM,2.2 Cells/ml (x10^5)
same,Viability (%),[3]; 3000 µM,92%
same,cell viability,[3]; 6mM,slight reduction
same,Cells/ml (x10^5),[3]; 6000 µM,2.4 Cells/ml (x10^5)
same,Viability (%),[3]; 6000 µM,75%
same,toxic effect (cell viability),[3]; concentrations of from 0.1 µM to 3 u.M,no toxic effect
